Our source for the IC50 and Ki values is ChEMBL document CHEMBL1909046, “DrugMatrix in vitro pharmacology data”.

Structures are written as SMILES.

Assay [1] addresses T1, 3-hydroxy-3-methylglutaryl-coenzyme A reductase (Homo sapiens, UniProt P04035).
T1 sequence (P04035 whole entry): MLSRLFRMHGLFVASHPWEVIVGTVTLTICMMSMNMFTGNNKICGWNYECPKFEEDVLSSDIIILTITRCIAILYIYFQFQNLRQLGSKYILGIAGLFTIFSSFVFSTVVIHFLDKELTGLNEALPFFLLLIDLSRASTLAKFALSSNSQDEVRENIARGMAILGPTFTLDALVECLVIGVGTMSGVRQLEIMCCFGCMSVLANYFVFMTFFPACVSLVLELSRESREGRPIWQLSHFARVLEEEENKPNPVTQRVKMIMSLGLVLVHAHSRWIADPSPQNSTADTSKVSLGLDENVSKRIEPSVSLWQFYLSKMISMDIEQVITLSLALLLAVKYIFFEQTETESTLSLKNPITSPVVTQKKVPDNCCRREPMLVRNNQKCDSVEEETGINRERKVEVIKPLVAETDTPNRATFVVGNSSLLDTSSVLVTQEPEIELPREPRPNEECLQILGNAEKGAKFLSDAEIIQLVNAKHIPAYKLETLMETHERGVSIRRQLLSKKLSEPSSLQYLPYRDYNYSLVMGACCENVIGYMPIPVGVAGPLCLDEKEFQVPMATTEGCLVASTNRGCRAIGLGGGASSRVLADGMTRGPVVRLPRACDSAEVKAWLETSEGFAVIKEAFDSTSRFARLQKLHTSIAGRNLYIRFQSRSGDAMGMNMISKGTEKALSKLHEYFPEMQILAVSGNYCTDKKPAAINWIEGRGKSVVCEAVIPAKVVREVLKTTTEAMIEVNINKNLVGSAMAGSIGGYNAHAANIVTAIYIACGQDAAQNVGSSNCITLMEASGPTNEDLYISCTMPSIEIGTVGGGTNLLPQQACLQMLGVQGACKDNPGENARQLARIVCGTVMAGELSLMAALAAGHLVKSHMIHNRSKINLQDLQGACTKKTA
Further details: species or system Escherichia coli.

The target in assay [2] is T2, 5-hydroxytryptamine receptor 1A (Rattus norvegicus, UniProt P19327). Further: in other assays of this panel Not Active means under 50% inhibition at 10 µM.
T2 sequence (P19327 whole entry): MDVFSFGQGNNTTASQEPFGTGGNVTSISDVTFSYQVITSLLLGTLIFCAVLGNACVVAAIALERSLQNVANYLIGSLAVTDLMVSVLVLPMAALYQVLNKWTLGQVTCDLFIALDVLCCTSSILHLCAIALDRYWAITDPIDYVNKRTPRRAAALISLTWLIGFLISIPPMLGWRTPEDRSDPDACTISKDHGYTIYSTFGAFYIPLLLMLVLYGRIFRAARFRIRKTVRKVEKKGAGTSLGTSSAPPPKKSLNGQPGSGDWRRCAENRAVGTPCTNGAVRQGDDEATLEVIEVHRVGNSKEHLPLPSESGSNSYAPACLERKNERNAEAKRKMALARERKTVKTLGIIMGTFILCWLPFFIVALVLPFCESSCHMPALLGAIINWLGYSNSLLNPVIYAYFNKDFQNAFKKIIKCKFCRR
In kind it is cell membranes, CHO-K1, Membrane.

Assay [3] concerns the target Glycine receptor (Rattus norvegicus, UniProt P22771+P24524+P07727+P20781). In kind it is cell membranes, Wistar, Spinal cord, Membrane. Further: in other assays of this panel Not Active means under 50% inhibition at 10 µM.
The nature of assay [4]: DRUGMATRIX: Purinergic P2X radioligand binding (ligand: [3H] alpha, beta-Methylene-ATP). Type of assay: cell membranes, Oryctolagus cuniculus, New Zealand albino, Urinary bladder, Membrane. As to conditions: Not Active = under 50% inhibition at 10 µM.
The target of assay [5] is T3, Angiotensin-converting enzyme (Oryctolagus cuniculus, UniProt P12822).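 Further: enzymatic inhibition of angiotensin-converting enzyme measured with FAPGG as the substrate; in other assays of this panel Not Active means under 50% inhibition at 10 µM.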
T3 sequence (P12822 whole entry): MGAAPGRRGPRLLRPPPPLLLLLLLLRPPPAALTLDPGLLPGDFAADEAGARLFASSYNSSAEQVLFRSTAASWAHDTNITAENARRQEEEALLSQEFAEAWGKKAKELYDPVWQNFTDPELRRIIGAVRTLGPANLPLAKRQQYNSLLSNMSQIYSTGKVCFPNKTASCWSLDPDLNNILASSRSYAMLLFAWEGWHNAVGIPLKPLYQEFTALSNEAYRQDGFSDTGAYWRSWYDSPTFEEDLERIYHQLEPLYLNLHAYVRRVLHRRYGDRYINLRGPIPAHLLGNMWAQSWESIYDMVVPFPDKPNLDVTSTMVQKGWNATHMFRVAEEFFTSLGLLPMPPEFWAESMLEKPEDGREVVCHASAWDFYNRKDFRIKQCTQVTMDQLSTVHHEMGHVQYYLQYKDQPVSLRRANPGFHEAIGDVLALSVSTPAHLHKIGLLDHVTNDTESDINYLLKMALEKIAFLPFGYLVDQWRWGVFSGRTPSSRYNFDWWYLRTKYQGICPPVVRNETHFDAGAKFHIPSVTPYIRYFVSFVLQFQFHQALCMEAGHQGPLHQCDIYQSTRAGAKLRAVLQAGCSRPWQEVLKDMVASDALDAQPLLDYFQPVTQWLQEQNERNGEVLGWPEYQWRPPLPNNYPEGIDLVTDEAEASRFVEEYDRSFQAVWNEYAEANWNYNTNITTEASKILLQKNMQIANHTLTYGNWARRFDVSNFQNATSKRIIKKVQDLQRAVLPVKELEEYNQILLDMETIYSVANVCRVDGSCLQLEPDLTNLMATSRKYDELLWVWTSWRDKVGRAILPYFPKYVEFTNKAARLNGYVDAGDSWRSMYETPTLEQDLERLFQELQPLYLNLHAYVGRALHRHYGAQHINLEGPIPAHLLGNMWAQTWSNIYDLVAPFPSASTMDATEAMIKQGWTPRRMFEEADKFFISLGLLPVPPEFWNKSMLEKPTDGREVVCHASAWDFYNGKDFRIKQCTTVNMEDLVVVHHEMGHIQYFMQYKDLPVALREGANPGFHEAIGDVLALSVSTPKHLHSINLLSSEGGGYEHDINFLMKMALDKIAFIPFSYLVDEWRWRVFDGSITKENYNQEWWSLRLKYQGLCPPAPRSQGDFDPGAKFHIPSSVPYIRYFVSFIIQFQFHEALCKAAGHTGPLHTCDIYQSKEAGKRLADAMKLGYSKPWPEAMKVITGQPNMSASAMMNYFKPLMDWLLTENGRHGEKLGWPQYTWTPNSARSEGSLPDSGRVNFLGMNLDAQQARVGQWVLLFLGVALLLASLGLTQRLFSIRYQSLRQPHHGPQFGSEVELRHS
As to the kind of experiment: biochemical. Type of assay: tissue-based, Lung.

In the case of `C#C[C@]1(O)CC[C@H]2[C@@H]3[C@H](C)CC4=C(CCC(=O)C4)[C@H]3CC[C@@]21C` [TIBOLONE], the IC50 result in assay [1], in assay [2] (cho-k1), in assay [3], in assay [4] and in assay [5] was “Not Active” throughout. Moreover, in assay [4], the Ki entry is recorded as “Not Active”.
On to `C[C@]12CCC(=O)C[C@@H]1CC[C@@H]1[C@@H]2CC[C@]2(C)[C@@H](O)CC[C@@H]12` [STANOLONE], for which the half-maximal inhibitory concentration (IC50) entry in assay [1], in assay [2] (cho-k1), in assay [3], in assay [4] and in assay [5] was “Not Active” in each case. Besides, the Ki result in assay [4] is given as “Not Active”.
Regarding `CC(C)(C)NC[C@H](O)COc1cccc2c1CCCC2=O` [LEVOBUNOLOL], the IC50 entry in assay [1] is “Not Active”; in assay [2] (read-out: IC50), 2900 nM; in assay [3] it was “Not Active”; in assay [4], “Not Active”; in assay [5], “Not Active”. Moreover, the Ki in assay [2] (read-out: Ki) is 1660 nM; in assay [4], “Not Active”.
`CCN1CCCC1CNC(=O)c1cc(S(N)(=O)=O)ccc1OC` (configuration not stated) [SULPIRIDE]: the IC50 result in assay [1], in assay [2] (cho-k1), in assay [3], in assay [4] and in assay [5] was “Not Active” each time. Further, in assay [4], the Ki result is recorded as “Not Active”.
Consider `CCN(CC)C(=S)SSC(=S)N(CC)CC`, for which the IC50 result in assay [1], in assay [2] (cho-k1), in assay [3], in assay [4] and in assay [5] was “Not Active” in each case. Further, the Ki entry in assay [4] was “Not Active”.
Turning to `OC[C@@H](O)[C@@H](O)[C@H](O)[C@H](O)CO` [MANNITOL], the IC50 entry in assay [1], in assay [2] (cho-k1), in assay [3], in assay [4] and in assay [5] was “Not Active” each time. Moreover, the Ki result in assay [4] was “Not Active”.
For the molecule `C[N+]1(C)[C@@H]2C[C@@H](OC(=O)[C@H](CO)c3ccccc3)C[C@H]1[C@@H]1O[C@@H]12.[Br-]` [METHSCOPOLAMINE BROMIDE], the IC50 entry in assay [1], in assay [2] (cho-k1), in assay [3], in assay [4] and in assay [5] was “Not Active” in each case. For the same molecule, the Ki entry in assay [4] is recorded as “Not Active”.
Take `CCN(CC)CCNC(=O)c1cc(Cl)c(N)cc1OC` [METOCLOPRAMIDE]: the half-maximal inhibitory concentration (IC50) entry in assay [1], in assay [2] (cho-k1), in assay [3], in assay [4] and in assay [5] was “Not Active” each time. In addition, in assay [4], the inhibition constant Ki entry is listed as “Not Active”.
In the case of `CC(=O)O[C@]1(C(C)=O)CC[C@H]2[C@@H]3C[C@H](C)C4=CC(=O)CC[C@]4(C)[C@H]3CC[C@@]21C` [MEDROXYPROGESTERONE ACETATE], the IC50 result in assay [1], in assay [2] (cho-k1), in assay [3], in assay [4] and in assay [5] was “Not Active” in each case. Also, the inhibition constant Ki entry in assay [4] is reported as “Not Active”.
For the molecule `Cc1ccnc(NS(=O)(=O)c2ccc(N)cc2)n1` [SULFAMERAZINE], the IC50 result in assay [1], in assay [2] (cho-k1), in assay [3], in assay [4] and in assay [5] was “Not Active” throughout. Also, the Ki result in assay [4] is “Not Active”.
Take `O=C(c1ccccc1)c1ccc2n1CCC2C(=O)O` (configuration not stated) [KETOROLAC]: the IC50 entry in assay [1], in assay [2] (cho-k1), in assay [3], in assay [4] and in assay [5] was “Not Active” throughout. In assay [4], the inhibition constant Ki entry is reported as “Not Active”.
Regarding `Cc1nnc(NS(=O)(=O)c2ccc(N)cc2)s1` [SULFAMETHIZOLE], the IC50 result in assay [1], in assay [2] (cho-k1), in assay [3], in assay [4] and in assay [5] was “Not Active” throughout. Besides, the inhibitory constant (Ki) result in assay [4] is listed as “Not Active”.
As for `CCC(C)(C)C(=O)O[C@H]1C[C@@H](C)C=C2C=C[C@H](C)[C@H](CC[C@@H]3C[C@@H](O)CC(=O)O3)[C@H]21` [SIMVASTATIN], the IC50 entry in assay [2] (cho-k1), in assay [3], in assay [4] and in assay [5] was “Not Active” throughout. For the same molecule, in assay [4], the Ki result is recorded as “Not Active”.
For `Oc1ccc(/C=C/c2cc(O)cc(O)c2)cc1` [RESVERATROL], the IC50 entry in assay [1], in assay [2] (cho-k1), in assay [3], in assay [4] and in assay [5] was “Not Active” throughout. In assay [4], the Ki entry was “Not Active”.
As to `Cc1cnc(NC(=O)C2=C(O)c3ccccc3S(=O)(=O)N2C)s1` [MELOXICAM], the IC50 result in assay [1], in assay [2] (cho-k1), in assay [3], in assay [4] and in assay [5] was “Not Active” throughout. For the same molecule, the Ki result in assay [4] is given as “Not Active”.
Turning to `CC[C@H](C)[C@@H](CO[C@@H](Cc1ccccc1)C(=O)N[C@@H](CCS(C)(=O)=O)C(=O)OC(C)C)NC[C@@H](N)CS`, the IC50 result in assay [1], in assay [2] (cho-k1), in assay [3], in assay [4] and in assay [5] was “Not Active” throughout. In assay [4], the Ki result was “Not Active”.
In the case of `CNCCCC12CCC(c3ccccc31)c1ccccc12` [MAPROTILINE], the IC50 result in assay [1], in assay [2] (cho-k1), in assay [3] and in assay [5] was “Not Active” throughout.
As to `CN(C)CCC=C1c2ccccc2COc2ccccc21` [DOXEPIN], the IC50 result in assay [1], in assay [3] and in assay [5] was “Not Active” each time.
With `Cc1cc2c(s1)Nc1ccccc1N=C2N1CCN(C)CC1` [OLANZAPINE], the IC50 entry in assay [1], in assay [2] (cho-k1), in assay [3] and in assay [5] was “Not Active” throughout.
